Experimental data published in publication PMC12867150, “A fungi-derived cyclic peptide enhances Th9-mediated antitumor immunity by targeting ZAP70 and SREBP1” (The Journal of Clinical Investigation, 2025).
Values joined by “and” are separate entries in the source; they are usually repeats but may differ in a detail not shown here. Identical values can stand only once.

Columns and labels:
[1] = Body weight after ACT (S1A); type: in vivo, mouse; details: EpA-Th9 therapy vs control; result in words
Description: (§1) C57BL/6 mice were subcutaneously injected with 5 × 10^5 B16-OVA melanoma cells. Five days after tumor implantation, mice received an intravenous infusion of 2 × 10^6 in vitro–differentiated Th9 cells (cultured for 5 days), which were derived from OT-II CD45.1 donor mice, accompanied by 4 × 10^5 OVA peptide–pulsed DCs via the tail vein. To enhance T cell engraftment and facilitate lymphodepletion, a single intraperitoneal injection of cyclophosphamide (200 mg/kg, Sigma, catalog C0768) was administered 1 day prior to T cell transfer. Mice were euthanized at designated time points for the collection and analysis of spleens, tumor-draining lymph nodes, and tumor tissues.
Days after ACT Days after ACT
Figure S1. EpA enhances immune responses.
(A) Body weight of mice after ACT in PBS, control, and EpA-treated groups. (B) Serum IL-6 levels after ACT, measured by ELISA on days 5, 10, 15, and 20. (C–E) Representative flow-cytometric plots showing transferred CD45.1⁺ OT-II Th9 cells in spleens (C), tumor-draining lymph nodes (LNs) (D), and tumors (E); frequencies Figure S1 and absolute numbers of CD45.1⁺ OT-II Th9 cells in LNs are quantified in (D). (F–
I) Representative flow-cytometric plots of endogenous CD4⁺ and CD8⁺ T cells in spleens (F), LNs (G), and tumors (H); frequencies and absolute numbers of endogenous CD4⁺ (G) and CD8⁺ (I) T cells in LNs are quantified. […]

[2] = tested on: endogenous CD4+ T cells; test: Flow cytometry of endogenous CD4+ T cells in spleen, LN, tumor (Figure 2D-E, S1F-H); type: in vivo, mouse; details: for Frequencies of endogenous CD4⁺ T cells in LN: Supplemental Figure 1G left; for Number of endogenous CD4⁺ T cells in LN: Supplemental Figure 1G right; for CD4 gate number: representative flow plot; for endogenous CD4 T cells (%) / number of endogenous CD4 T cells: individual mice, n = 4
Description: as §1
Details regarding staining panels (human and mouse), reagents (including clones and catalog numbers), acquisition settings, compensation/controls, and analysis procedures are provided in Supplemental Methods.
BioLegend, Cat. No. 422301 or Mouse TruStain FcX™, BioLegend, Cat. No. 101319) for 10 minutes at 4°C. For surface marker detection, cells were stained with fluorochrome-conjugated monoclonal antibodies in 96-well V-bottom plates and incubated on ice for 30 minutes. After staining, cells were washed twice and resuspended in FACS buffer for analysis.
Prior to intracellular cytokine staining, cells were restimulated for 4 hours with PMA (Absin, Cat. No. abs9107), ionomycin (Sigma-Aldrich, Cat. No. I0634), and brefeldin A (MedChemExpress, Cat. No. HY-16592). For intracellular cytokine staining, cells were first surface-stained as described above, then fixed and permeabilized using the BD Cytofix/Cytoperm™ kit (BD Biosciences, Cat. No. 554714) according to the manufacturer ’s protocol. Intracellular proteins were stained with directly conjugated antibodies targeting IL-9, IL-17a, IL-4, IFN-γ, TNF-α, FOXP3, p-ZAP70, Perforin, and […]
Antibodies used for mouse samples included those against IL-9 (PE, clone RM9A4, Biolegend, Cat. No. 514104), IFN-γ (PE, clone XMG1.2, Biolegend, Cat. No.
Cat. No. 103138), CD4 (APC/Cy7, clone E-AB-F1353UJ, Elabscience, Cat. No.
AF18028), CD8α (PerCP/Cy5.5, clone E-AB-F1104UJ, Elabscience, Cat. No. […]
clone E-AB-F1187UH, Elabscience, Cat. No. AF19854), TNF-α (BV421, clone MP6-XT22, Biolegend, Cat. No. 506328), FOXP3 (PE, clone FJK-16s, eBioscience, Cat. No.
Perforin (APC, clone S16009A, Biolegend, Cat. No. 154303) and Granzyme B (APC, […]
clone QA16A02, Biolegend, Cat. No. 372203). […]
Figure S1. EpA enhances immune responses. […]
I) Representative flow-cytometric plots of endogenous CD4⁺ and CD8⁺ T cells in spleens (F), LNs (G), and tumors (H); frequencies and absolute numbers of endogenous CD4⁺ (G) and CD8⁺ (I) T cells in LNs are quantified. (J and K) […]
Statistical analysis was performed using two-way ANOVA with Tukey’s post hoc test (A), one-way ANOVA with Tukey’s post hoc test (B) or two-tailed unpaired Student’s t-test (D and G–M). ns, not significant. *p < 0.05, **p < 0.01, ****p < 0.0001.
(also on this page, place not known: Mouse weight (g) CtrlEpA CtrlEpA CtrlEpA0 I CD45.1+ T cells (%) CtrlEpA CD4+ T cells (%) CtrlEpA CtrlEpA CtrlEpA FSC CD8 CD8 FSC FSC FSC BNumber of CD45.1+ T cells (×103 per mgĎ Number of CD4+ T cells (×104 per mgĎ DC (%)NK cells (%) NK cells (%) DC (%) Number of DC (×103 per mg) Number of NK cells (×105) Number of NK cells (×103 per mg) Number of DC (×105) FSC FSC FSC CD8 CtrlEpA CtrlEpA CtrlEpA CD8+ T cells (%) Number of CD8+ T cells (×104 per mgĎ nsns ns nsns ns 40 IL-6 (pg/ml)) […]

anteiso-C15 Leu7 surfactin [EpA]
body weight [1]: No significant differences | Frequencies of endogenous CD4⁺ T cells in LN ([2]; LN, replicate 1): 32.6 | Frequencies of endogenous CD4⁺ T cells in LN ([2]; LN, replicate 2): 26.4 | Frequencies of endogenous CD4⁺ T cells in LN ([2]; LN, replicate 3): 36 | Frequencies of endogenous CD4⁺ T cells in LN ([2]; LN, replicate 4): 26 | Number of endogenous CD4⁺ T cells in LN ([2]; LN, replicate 1): 43261 | Number of endogenous CD4⁺ T cells in LN ([2]; LN, replicate 2): 37630 | Number of endogenous CD4⁺ T cells in LN ([2]; LN, replicate 3): 15416 | Number of endogenous CD4⁺ T cells in LN ([2]; LN, replicate 4): 15595.7 | CD4 gate number ([2]; LN, Figure S1G): 36.0 | CD4 gate number ([2]; Spleen, Figure S1F): 26.1 | CD4 gate number ([2]; Tumor, Figure S1H): 15.2 | endogenous CD4+ T cell frequency and number ([2]; spleens, lymph nodes, tumors, result in words): minimal changes | endogenous CD4 T cells (%) ([2]; spleens): 30.3% and 32.9% and 35.5% and 26.1% | number of endogenous CD4 T cells ([2]; spleens): 1093264 and 1018812 and 1081910 and 535955 | endogenous CD4 T cells (%) ([2]; tumors): 15.2% and 16.6% and 24% and 21.6% | number of endogenous CD4 T cells ([2]; tumors): 158 and 294 and 393 and 62
